Assay results: BindingDB's records for doi:10.1021/jm991098z (Friedrich-Alexander University, 2000)

Assays:
[1] = molecular target: T1, D(2) dopamine receptor (Homo sapiens, UniProt P14416); experiment: Binding Affinity was tested on relative proportion of High Affinity Site of Dopamine receptor D2L
[2] = Binding Affinity was tested on relative proportion of High Affinity Site of Dopamine receptor D3
[3] = molecular target: T2, D(4) dopamine receptor (Homo sapiens, UniProt P21917); experiment: Binding Affinity was tested on relative proportion of High Affinity Site of Dopamine receptor D4.4
T2 sequence (P21917 whole entry): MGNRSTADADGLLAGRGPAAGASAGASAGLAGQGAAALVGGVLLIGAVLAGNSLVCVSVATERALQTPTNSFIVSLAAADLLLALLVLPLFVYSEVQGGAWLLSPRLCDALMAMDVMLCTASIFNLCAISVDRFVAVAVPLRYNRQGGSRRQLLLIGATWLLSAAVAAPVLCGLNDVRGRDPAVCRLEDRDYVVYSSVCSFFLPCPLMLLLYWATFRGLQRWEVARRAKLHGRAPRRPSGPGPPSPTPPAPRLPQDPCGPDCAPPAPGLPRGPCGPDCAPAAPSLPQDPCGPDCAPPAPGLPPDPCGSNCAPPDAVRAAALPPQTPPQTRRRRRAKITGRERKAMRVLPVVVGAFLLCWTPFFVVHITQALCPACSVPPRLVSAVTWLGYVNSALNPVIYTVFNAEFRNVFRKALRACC

[4] = molecular target: T1, D(2) dopamine receptor; experiment: Binding Affinity was tested on relative proportion of High Affinity Site of Dopamine receptor D2S

T1 sequence (P14416 whole entry): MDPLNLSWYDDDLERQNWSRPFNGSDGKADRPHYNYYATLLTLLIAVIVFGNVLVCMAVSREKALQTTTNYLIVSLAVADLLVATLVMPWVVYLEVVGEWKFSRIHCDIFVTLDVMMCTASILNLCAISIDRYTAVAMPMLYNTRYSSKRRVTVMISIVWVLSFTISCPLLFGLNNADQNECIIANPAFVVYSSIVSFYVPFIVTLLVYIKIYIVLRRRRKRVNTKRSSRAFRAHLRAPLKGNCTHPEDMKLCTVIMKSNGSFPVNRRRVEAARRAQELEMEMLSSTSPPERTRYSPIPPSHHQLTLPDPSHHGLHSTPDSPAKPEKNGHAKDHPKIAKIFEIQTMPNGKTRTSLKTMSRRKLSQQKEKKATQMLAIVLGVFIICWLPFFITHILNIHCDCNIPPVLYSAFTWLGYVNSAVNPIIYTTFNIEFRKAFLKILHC

| RH [1] [%] | Ki [2] [µM] | RH [3] [%] | RH [4] [%] | Compound |
| --- | --- | --- | --- | --- |
| 16 | 0.023 | 54 | 17 | CCCN(CCC)C1CC=C(C#C[Si](C)(C)C)CC1 (configuration not stated) [Dipropyl-(4-trimethylsilanylethynyl-cyclohex-3-enyl)-amine] |
| 38 |  | 38 | 34 | C#CC1=CCC(N(CCC)CCC)CC1 (configuration not stated) [(4-Ethynyl-cyclohex-3-enyl)-dipropyl-amine] |
